Experimental data taken from paper PMC10786919, “Design-rules for stapled peptides with in vivo activity and their application to Mdm2/X antagonists” (Nature Communications, 2024).
In brackets after ≈: the same amount, converted by molar mass. Read-outs that look alike come from different tables or passages of the source. Positions of bridges follow the written chain, without caps; N, C: chain ends. Non-standard residues stand in square brackets, D forms with d. Residues, ends and D or L forms follow the SMILES beside them. Lys(N3) = [N-]=[N+]=NCCCC[C@H](N)C(=O)O; R8 = C=CCCCCCC[C@@](C)(N)C(=O)O; Cba = N[C@@H](CC1CCC1)C(=O)O; S5 = C=CCCC[C@](C)(N)C(=O)O; Ahx = NCCCCCC(=O)O; βAla = NCCC(=O)O

Key:
[1] = Solubility assay (kinetic solubility, PBS pH 7); format: physicochemical; details: pH 7, PBS; for solubility kinetic: pH 7, aqueous buffer, kinetic from dmso stock, read-out: Solubility
Description: The standard reference solutions were prepared by diluting the 10 mM stock in 10:80:10 solution of acetonitrile:methanol:DMSO to 100 µM.
The solubility value is calculated by the following equation:
Solubility [µM] = (Peak area of sample/ Peak area of standard) (Standard concentration)

[2] = Experimental LogD (partition coefficient); details: for logD: not stated, Partition Coeff LogD
[3] = Lactate dehydrogenase (LDH) release assay; format: cell-based
Description: (§1) HCT116 cells were stably transfected with a p53 responsive β-lactamase reporter and expanded in McCoy’s 5 A Medium with 10% fetal bovine serum (FBS), Blasticidin, and Penicillin/Streptomycin and then transferred to 1.5 ml freezing vials and stored under liquid nitrogen in growth media containing 5% DMSO. […] The cells were then seeded into a 384-well plate at a density of 8000 cells per well. […] The final working concentration of DMSO was 0.5%. Lactate dehydrogenase release was detected using the CytoTox-ONE Homogenous Membrane Integrity Assay Kit (Promega), as per the manufacturer’s instructions. Measurements were carried out using the Tecan plate reader. […] Measurements were taken a minimum of three times (biological replicates) and values are reported as geometric means of the replicates.

HCT116 cells = test: Lactate dehydrogenase (LDH) release assay; format: cell-based
Description: as §1

[4] = Nanoclick permeability assay
Description: Further, there have been several literature reports[18]–[20] that highlight that the combination of hydrophobic character and positive charge can result in mast cell degranulation (MCD), a potentially fatal condition[18]–[20]. […] The NanoClick assay[22] determines permeability of azide-labeled peptides by combining intracellular copper-free click chemistry with NanoBRET technology. Specifically, if an azido-peptide achieves cytosolic exposure, it will react with a cyclooctyne-decorated Halotag construct that is fused with nanoluciferase. This reaction blocks the click labelling of a subsequently added azido-labeled acceptor dye, thus decreasing the NanoBRET signal in a manner that is target-binding agnostic.
This assay was previously described in detail. The assay was performed in 384-well white assay plates (PerkinElmer CUSG03874) using assay-ready frozen cells that had been transiently transfected with the NanoLuc-HaloTag vector that were thawed at plated in complete media at a density of 6000 cells/ well and incubated at 37 °C 5% CO2 overnight. DIBAC-CA was diluted in assay buffer (OptiMem without phenol red + 1% FBS) and added to cells at a final concentration of 3 μM and incubated at 37 °C 5% CO2 for 1 h. Cells were subsequently centrifuged using a BlueWasher instrument (Blue Cat Bio) to remove the DIBAC-CA solution and washed two times with HBSS (Ca2 + , Mg2 + ). A volume of 30 μL of assay buffer was added back to cell plates. Peptides were serially diluted 4-fold in DMSO with a Hamilton Star apparatus and then delivered into assay plates with an acoustic liquid handler Labcyte ECHO (300 nl, 1% DMSO in-well concentration). After incubating cells with peptide for the desired time (4 or 18 h), the HaloTag ligand, NanoBret618-azide, was added to each well at a final concentration of 10 μM. […] Following addition of NanoBRET Nano-Glo Substrate, donor emission (450 nm) and acceptor emission (610 nm) were measured using an Envision instrument (PerkinElmer).

[5] = 0% FBS 4Hr, read-out: LDH: Cytotoxicity assay: EC50
[6] = 10% FBS 16Hr, read-out: LDH: Cytotoxicity assay: EC50

Structure (SMILES)	solubility kinetic [1]	logD [2]	EC50 ([3]; LDH: Cytotoxicity assay: EC50)	LDH: Cytotoxicity assay: % Effect (HCT116 cells)	further results
CC(=O)N[C@@H](CCCCN=[N+]=[N-])C(=O)N[C@@H](CCCNC(=N)N)C(=O)N[C@@H](CCCNC(=N)N)C(=O)NCCCCCC(=O)N[C@H](C(=O)N[C@@H](CO)C(=O)N[C@@H](Cc1ccccc1)C(=O)N[C@]1(C)CCCCCCC=CCCC[C@@](C)(C(=O)N[C@@H](CCC(=O)O)C(=O)N[C@@H](CC(N)=O)C(=O)N[C@@H](Cc2ccccc2)C(N)=O)NC(=O)[C@H](CC(C)C)NC(=O)[C@H](CC(C)C)NC(=O)[C@H](C)NC(=O)[C@H](Cc2c[nH]c3ccccc23)NC(=O)[C@H](Cc2ccc(O)cc2)NC(=O)[C@H](CCC(=O)O)NC1=O)[C@@H](C)O [MP-083] (Ac-[Lys(N3)]RR[Ahx]TSF[R8]EYWALL[S5]ENF-NH2; staple 8-15)	4 µM (≈ 9.73 µg/mL)	2.54	–	–	EC50 ([3]; LDH: Cytotoxicity assay EC50): > 50 µM; LDH: Cytotoxicity assay % Effect (HCT116 cells): 0.165%
CC(C)C[C@@H]1NC(=O)[C@H](C)NC(=O)[C@H](Cc2c[nH]c3ccccc23)NC(=O)[C@H](Cc2ccc(O)cc2)NC(=O)[C@H](CCC(=O)O)NC(=O)[C@](C)(NC(=O)[C@H](Cc2ccccc2)NC(=O)[C@H](CO)NC(=O)[C@@H](NC(=O)CNC(=O)[C@H](CO)NC(=O)CNC(=O)[C@@H](N)CCCCN=[N+]=[N-])[C@@H](C)O)CCCCCCC=CCCC[C@@](C)(C(=O)N[C@@H](CCC(=O)O)C(N)=O)NC(=O)[C@H](CC(C)C)NC1=O [MP-011]	23 µM (≈ 43.8 µg/mL)	2.05	> 50 µM	18.05%	–
CC(=O)N[C@@H](CCCCN=[N+]=[N-])C(=O)NCCC(=O)N[C@@H](CC(C)C)C(=O)N[C@H](C(=O)N[C@@H](Cc1ccccc1)C(=O)N[C@]1(C)CCCCC#CC#CCCC[C@@](C)(C(=O)N[C@@H](C)C(=O)N[C@@H](C)C(=O)N[C@@H](C)C(=O)N[C@@H](C)C(=O)N[C@@H](C)C(=O)N[C@H](C)C(N)=O)NC(=O)[C@H](CC2CCC2)NC(=O)[C@H](CCC(N)=O)NC(=O)[C@H](C)NC(=O)[C@H](Cc2c[nH]c3ccccc23)NC(=O)[C@H](Cc2ccc(O)cc2)NC(=O)[C@H](CCC(=O)O)NC1=O)[C@@H](C)O [MP-616]	–	2.67	–	–	EC50 [3, 5]: > 50.7 µM; EC50 [3, 6]: > 50.7 µM; LDH: Cytotoxicity assay: % Effect (HCT116 cells; 0% FBS 4Hr): 12.87%; LDH: Cytotoxicity assay: % Effect (HCT116 cells; 10% FBS 16Hr): 8.138%
CC(=O)N[C@@H](CCCNC(=N)N)C(=O)NCCC(=O)N[C@@H](CC(C)C)C(=O)N[C@H](C(=O)N[C@@H](Cc1ccccc1)C(=O)N[C@]1(C)CCCCCCC=CCCC[C@@](C)(C(=O)N[C@@H](CO)C(=O)N[C@@H](C)C(=O)N[C@@H](C)C(N)=O)NC(=O)[C@H](CC2CCC2)NC(=O)[C@H](CCC(N)=O)NC(=O)[C@H](C)NC(=O)[C@H](Cc2c[nH]c3ccccc23)NC(=O)[C@H](Cc2ccc(O)cc2)NC(=O)[C@H](CCC(=O)O)NC1=O)[C@@H](C)O [MP-000]	2 µM (≈ 3.94 µg/mL)	2.66	> 50 µM	6.079%	–
CC(=O)N[C@@H](CCCCN=[N+]=[N-])C(=O)NCCC(=O)N[C@@H](CC(C)C)C(=O)N[C@H](C(=O)N[C@@H](Cc1ccccc1)C(=O)N[C@]1(C)CCCCCCC=CCCC[C@@](C)(C(=O)N[C@@H](C)C(=O)N[C@@H](C)C(=O)N[C@@H](C)C(=O)O)NC(=O)[C@H](CC2CCC2)NC(=O)[C@H](CCC(N)=O)NC(=O)[C@H](C)NC(=O)[C@H](Cc2c[nH]c3ccccc23)NC(=O)[C@H](Cc2ccc(O)cc2)NC(=O)[C@H](CCC(=O)O)NC1=O)[C@@H](C)O [MP-684]	–	–	–	–	EC50 [3, 5]: > 50.7 µM; EC50 [3, 6]: > 50.7 µM; cell entry EC50 [4]: 0.496 µM
CC(=O)N[C@@H](CCCCN=[N+]=[N-])C(=O)NCCC(=O)N[C@@H](CC(C)C)C(=O)N[C@H](C(=O)N[C@@H](Cc1ccccc1)C(=O)N[C@]1(C)CCCCCCC=CCCC[C@@](C)(C(=O)N[C@@H](CO)C(=O)N[C@@H](C)C(=O)N[C@@H](CCCNC(=N)N)C(N)=O)NC(=O)[C@H](CC2CCC2)NC(=O)[C@H](CCC(N)=O)NC(=O)[C@H](C)NC(=O)[C@H](Cc2c[nH]c3ccccc23)NC(=O)[C@H](Cc2ccc(O)cc2)NC(=O)[C@H](CCC(=O)O)NC1=O)[C@@H](C)O [MP-480] (Ac-[Lys(N3)][βAla]LTF[R8]EYWAQ[Cba][S5]SAR-NH2; staple 6-13)	–	–	> 50 µM	–	cell entry EC50 ([4]; Nanoclick permeability assay EC50): 0.1 µM
CC(=O)N[C@@H](CCCNC(=N)N)C(=O)N[C@@H](CCCNC(=N)N)C(=O)NCCCCCC(=O)N[C@@H](CCCCN=[N+]=[N-])C(=O)N[C@@H](CC(C)C)C(=O)N[C@H](C(=O)N[C@@H](Cc1ccccc1)C(=O)N[C@]1(C)CCCCCCC=CCCC[C@@](C)(C(=O)N[C@@H](CO)C(=O)N[C@@H](C)C(=O)N[C@@H](C)C(N)=O)NC(=O)[C@H](CC2CCC2)NC(=O)[C@H](CCC(N)=O)NC(=O)[C@H](C)NC(=O)[C@H](Cc2c[nH]c3ccccc23)NC(=O)[C@H](Cc2ccc(O)cc2)NC(=O)[C@H](CCC(=O)O)NC1=O)[C@@H](C)O [MP-007]	37 µM (≈ 86 µg/mL)	2.83	> 50 µM	23.39%	–
CC(=O)N[C@@H](CCCCN=[N+]=[N-])C(=O)N[C@@H](CCCCN)C(=O)N[C@@H](CCCCN)C(=O)N[C@@H](CCCCN)C(=O)NCCCCCC(=O)N[C@H](C(=O)N[C@@H](CO)C(=O)N[C@@H](Cc1ccccc1)C(=O)N[C@]1(C)CCCCCCC=CCCC[C@@](C)(C(=O)N[C@@H](CCC(=O)O)C(=O)N[C@@H](CC(N)=O)C(=O)N[C@@H](Cc2ccccc2)C(N)=O)NC(=O)[C@H](CC(C)C)NC(=O)[C@H](CC(C)C)NC(=O)[C@H](C)NC(=O)[C@H](Cc2c[nH]c3ccccc23)NC(=O)[C@H](Cc2ccc(O)cc2)NC(=O)[C@H](CCC(=O)O)NC1=O)[C@@H](C)O [MP-085] (Ac-[Lys(N3)]KKK[Ahx]TSF[R8]EYWALL[S5]ENF-NH2; staple 9-16)	2 µM (≈ 5.01 µg/mL)	2.39	–	–	EC50 ([3]; LDH: Cytotoxicity assay EC50): > 50 µM
CC(=O)N[C@@H](CCCCN=[N+]=[N-])C(=O)NCCC(=O)N[C@@H](CC(C)C)C(=O)N[C@H](C(=O)N[C@@H](Cc1ccccc1)C(=O)N[C@]1(C)CCCCCCC=CCCC[C@@](C)(C(=O)N[C@@H](C)C(=O)N[C@@H](C)C(=O)N[C@@H](CCC(=O)O)C(=O)N[C@@H](C)C(=O)N[C@@H](C)C(=O)N[C@H](C)C(N)=O)NC(=O)[C@H](CC2CCC2)NC(=O)[C@H](CCC(N)=O)NC(=O)[C@H](C)NC(=O)[C@H](Cc2c[nH]c3ccccc23)NC(=O)[C@H](Cc2ccc(O)cc2)NC(=O)[C@H](CCC(=O)O)NC1=O)[C@@H](C)O [MP-833] (Ac-[Lys(N3)][βAla]LTF[R8]EYWAQ[Cba][S5]AAEAA[dA]-NH2; staple 6-13)	154 µM (≈ 343 µg/mL)	–	–	–	EC50 ([3]; 0% FBS 4Hr, read-out: LDH: Cytotoxicity assay EC50): > 50.7 µM; EC50 ([3]; 10% FBS 16Hr, read-out: LDH: Cytotoxicity assay EC50): > 50.7 µM; LDH: Cytotoxicity assay % Effect (HCT116 cells; 0% FBS 4Hr): 3.813%; LDH: Cytotoxicity assay % Effect (HCT116 cells; 10% FBS 16Hr): 10.68%; cell entry EC50 [4]: 1.02 µM
CC(=O)N[C@@H](CCCNC(=N)N)C(=O)NCCC(=O)N[C@@H](CCCCN=[N+]=[N-])C(=O)N[C@@H](CC(C)C)C(=O)N[C@H](C(=O)N[C@@H](Cc1ccccc1)C(=O)N[C@]1(C)CCCCCCC=CCCC[C@@](C)(C(=O)N[C@@H](CO)C(=O)N[C@@H](C)C(=O)N[C@@H](C)C(N)=O)NC(=O)[C@H](CC2CCC2)NC(=O)[C@H](CCC(N)=O)NC(=O)[C@H](C)NC(=O)[C@H](Cc2c[nH]c3ccccc23)NC(=O)[C@H](Cc2ccc(O)cc2)NC(=O)[C@H](CCC(=O)O)NC1=O)[C@@H](C)O [MP-4004]	–	–	> 50 µM	7.573%	Solubility [1]: Poorly Behaved; Partition Coeff LogD [2]: Poorly Behaved
